Data from paper PMC9545004, “Transglutaminase 2 affinity and enzyme‐substrate intermediate stability as determining factors for T‐cell responses to gluten peptides in celiac disease” (European Journal of Immunology, 2022).

Assays:
[1] = system: TCR-transfectant cells specific for DQ2.5-glia-α2 or DQ2.5-glia-ω2; test: Inhibition by primary amines of gluten-specific T-cell stimulation via TG2-specific B cells, both epitopes; type: cell-based; settings: native α-gliadin 33-mer and ω-gliadin 34-mer, IL-2 production, Table S2, read-out: IC50, inhibition of T-cell stimulation (range)
Excerpt: (§1) Murine A20 B lymphoma cells engineered to express either the celiac patient‐derived TG2‐specific BCR 679‐14‐E06 or the non‐TG2‐specific BCR 693‐2‐F02 as human IgD are previously described. For B‐cell/T‐cell collaboration assays, we used A20 BCR transfectants also transduced to express HLA‐DQ2.5 [27]. Murine BW58α^–β^– cells were retrovirally transduced to express human CD4 as well as the celiac patient‐derived gluten‐specific TCR from a DQ2.5‐glia‐γ1‐reactive T‐cell clone (TCC 4.32) as previously described. The generation of TCR transfectants expressing DQ2.5‐glia‐α2‐reactive TCR (TCC 364.14) and DQ2.5‐glia‐ω2‐reactive TCR (clone 737.30) have been described previously.
The B‐cell/T‐cell collaboration assays were set up as previously described. […] The next day, IL‐2 concentration was measured in the culture supernatant by ELISA as previously described. The responsiveness of different TCR transfectants was assessed in the same way, but without the 30 min incubation with TG2, and using the synthetic deamidated peptides (D‐α‐gliadin 20‐mer, D‐ω‐gliadin 17‐mer, and D‐γ‐gliadin 21‐mer). […]

[2] = system: TCR-transfectant cells specific for DQ2.5-glia-α2; test: Inhibition by primary amines of activation of DQ2.5-glia-α2-specific T cells by TG2-specific B cells, IL-2 ELISA; type: cell-based; settings: for IC50: 5 µM N-α-gliadin 33-mer, TG2, CaCl2, amine 0-1000 µM, IL-2 ELISA
Excerpt: as §1
The B‐cell/T‐cell collaboration assays were set up as previously described. To compare the uptake and presentation of different gluten peptides to T cells, A20 cells (5 mill/mL) expressing the TG2‐specific BCR (679‐14‐E06) and HLA DQ2.5 were incubated with recombinant TG2 (final 3 µg/mL) and varying amounts of N‐α‐gliadin 20‐mer, N‐ω‐gliadin 19‐mer, or N‐γ‐gliadin 21‐mer in RPMI supplemented with 2 mM CaCl2. After a 30 min incubation at 37°C the cells were washed with 1% FCS/RPMI and resuspended in 5% FCS/RPMI to give a final 1.5 million cells/mL (150 000/well) followed by 2 h incubation at 37°C. Next, TCR‐transfectant cells specific for either DQ2.5‐glia‐α2, DQ2.5‐glia‐ω2, or DQ2.5‐glia‐γ1 were added (25 000/well), followed by overnight incubation at 37°C. The next day, IL‐2 concentration was measured in the culture supernatant by ELISA as previously described. The responsiveness of different TCR transfectants was assessed in the same way, but without the 30 min incubation with TG2, and using the synthetic deamidated peptides (D‐α‐gliadin 20‐mer, D‐ω‐gliadin 17‐mer, and D‐γ‐gliadin 21‐mer). To assess how TG2 secondary substrate affects peptide uptake and presentation to T cells, TG2‐specific A20 cells expressing DQ2.5 were incubated with TG2, CaCl2, 5 µM N‐ω‐gliadin 34‐mer, or 5 µM N‐α‐gliadin 33‐mer in the presence of primary amines at increasing concentrations (0‐1000 µM), before the addition of TCR‐transfectant cells specific for the DQ2.5‐glia‐α2 or DQ2.5‐glia‐ω2 epitopes. The dose‐response curve fitting to find IC50 was done using the “[Inhibitor] vs. response” equation in GraphPad Prism 8.3.0. To examine whether primary amines directly affect the B cells, TG2‐specific A20 cell expressing DQ2.5 were incubated with primary amines for 30 min and washed, before addition of 2 µM D‐ω‐gliadin 34‐mer, followed by incubation with DQ2.5‐glia‐ω2 TCR transfectants.

[3] = DQ2.5-glia-α2, replicate Figure S5A
[4] = DQ2.5-glia-α2, replicate Figure S5B
[5] = logIC50, DQ2.5-glia-α2, Figure 5
[6] = logIC50, DQ2.5-glia-α2, replicate Figure S5A
[7] = logIC50, DQ2.5-glia-α2, replicate Figure S5B

Compound	IC50 [1]	IC50 ([2]; DQ2.5-glia-α2, Figure 5)	IC50 ([2]; DQ2.5-glia-α2, mean)	IC50 [2, 3]	IC50 [2, 4]	logIC50 ([2]; DQ2.5-glia-α2, Figure 5)	logIC50 ([2]; DQ2.5-glia-α2, mean)	logIC50 [2, 3]	logIC50 [2, 4]	log 95% CI lower limit [2, 5]	log 95% CI upper limit [2, 5]	log 95% CI lower limit ([2]; logIC50, DQ2.5-glia-α2, mean)	log 95% CI upper limit ([2]; logIC50, DQ2.5-glia-α2, mean)	log 95% CI lower limit [2, 6]	log 95% CI upper limit [2, 6]	log 95% CI lower limit [2, 7]	log 95% CI upper limit [2, 7]
NCCCCCNC(=O)CCCC[C@@H]1SC[C@@H]2NC(=O)N[C@@H]21 [5-BP, 5‐biotinamido‐pentylamine]	27 to 58 µM	42.7 µM	53.3 µM	23.7 µM	93.6 µM	1.63	1.66	1.37	1.97	1.48	1.78	1.39	1.93	1.15	1.60	1.54	2.43
NCCCNCCCCNCCCN [spermine]	27 to 58 µM	77.3 µM	58 µM	17.7 µM	78.9 µM	1.89	1.68	1.25	1.90	1.53	2.27	1.25	2.11	0.638	1.83	1.59	2.22
